The source of these data is paper PMC6131205, “Controlling the regioselectivity and stereospecificity of FAD-dependent polyamine oxidases with the use of amine-attached guide molecules as conformational modulators” (Bioscience Reports, 2018).

Where only a bound is given, the exact number is not on record here.

Assay [1] addresses T1, Fms1 (Saccharomyces cerevisiae, UniProt P50264). Kind of assay: Fms1 cleavage of (R)- or (S)-MeSpd with or without aromatic aldehyde (E1/E2 velocities). On the set-up: made in house. In kind it is biochemical, yeast.
Assay [2] deals with T1, Fms1. Kind of assay: Substrate kinetics with recombinant Fms1 (HPLC of reaction products).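 Also: recombinant polyamine oxidases incubated with substrate, product amines (putrescine, 1,3-diaminopropane or butane-1,3-diamine) quantified by HPLC after post-column o-phthalaldehyde derivatization.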 As to conditions: Fms1, text summary of Supplementary Table S2.
Experimental: (§1) HPLC with post-column o-phthalaldehyde-derivatization was used to determine the concentrations of the reaction products Put and 1,3-diaminopropane (DAP) or butane-1,3-diamine respectively as described in [30]. Fms1 activity was determined essentially as described for human recombinant APAO, but reactions were carried out in 100 mM Glycine-NaOH buffer at pH 9.0 in a water bath at +25°C [29, 30].
The reactions were carried out in 1 triplicate at pH 9.0 in 100 mM Glycine-NaOH at +25°C.
values for N -Ac-MeSpd enantiomers were determined by using substrate concentrations of 25, 50,
for Rac-MeSpd 30 min, (R)-MeSpd 20 min and (S)-MeSpd 40 minutes.
The reactions were carried out in triplicate at pH 9.0 in 100 mM Glycine-NaOH at +25°C.
values for MeSpd enantiomers were determined by using substrate concentrations of 100, 300, 600,
1000, 2000 and 4000 M. Recombinant Fms1 was 3.8 g/reaction and the incubation time 60
incubated for 30 min (half of the reaction time of an ordinary sample). E1 cleavage was monitored
The target in assay [3] is T1, Fms1. Kind of assay: Fms1 cleavage of (R)- or (S)-MeSpd with or without aromatic aldehyde (E1/E2 velocities). It is filed as biochemical, yeast. The arrangement: made in house. As for the experimental part: Supplementary Table 3 The effects of increasing aromatic aldehyde concentration for the regioselectivity of Fms1 using (R)-MeSpd or (S)-MeSpd as a substrate.
The reactions were carried out in triplicate at pH 9.0 in 100 mM Glycine-NaOH at +25°C with the fixed 1 or 4 mM MeSpd supplemented with increasing concentration 50 or 500 µM of tested aldehyde. Recombinant Fms1 was 1.6 µg/reaction and the incubation time from 15 to 30 minutes.
Linearity of reaction was monitored by using T1/2 controls, i.e. samples that have been incubated for 7.5 to 15 min (half of the reaction time of an ordinary sample). E1 cleavage was monitored by HPLC by measuring Put formation and E2 cleavage by determining butane-1,3-diamine content.
Substrate (R)-MeSpd (S)-MeSpd […]
The source holds these as a separate data set.

Assay [4] deals with T2, human recombinant APAO (Homo sapiens, UniProt Q6QHF9).
T2 construct: made in house
The conditions noted are these: benzaldehyde Schiff base of MeSpd; cited from earlier work.

Assay [5] has as its target T1, Fms1. Kind of assay: Fms1 cleavage of 1 mM Spd supplemented with aldehydes (E1/E2 regioselectivity).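 As to all read-outs here: recombinant yeast Fms1 reactions in Glycine-NaOH buffer, with products Put and DAP quantified by HPLC using post-column o-phthalaldehyde derivatization.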 In kind it is biochemical, yeast. The arrangement: made in house. The conditions noted are these: for effect on cleavage site balance of Spd: Spd plus aldehyde; for E1 cleavage (Put) kcat / E2 cleavage (DAP) kcat / Ratio of E1/E2: fixed 1 mM Spd, aldehyde 25-1000 μM, pH 9.0, 25°C.
Experimental: as §1

Assay [6] concerns the target T3, SMOX (Homo sapiens, UniProt Q9NWM0). The assay can be described thus: Substrate properties with human recombinant SMOX. In kind it is biochemical. On the set-up: made in house. The text has this:
Thus, developing specific inhibitors of SMOX is of crucial importance. In addition, the use of specific substrates for SMOX and APAO would enable distinguishing between APAO and SMOX enzyme activities in vivo.

In assay [7] the target is T3, SMOX. The assay can be described thus: Inhibition of SMOX (Ki, peroxidase-coupled fluorescence, Spm as substrate).
Experimental: Reaction mixtures contained 40 units/ml horseradish peroxidase (Roche), 1 mM homovanillic acid in 100 mM Glycine-NaOH at pH 9.0 supplemented with 40 ng of SMOX. […] Dilutions of fresh H2O2 were used as standard.
Assay [8] concerns the target T2, human recombinant APAO. The assay can be described thus: Substrate kinetics with human recombinant APAO (HPLC of reaction products). It is filed as biochemical. The conditions noted are these: for Km / Vmax / kcat: 100 mM Glycine-NaOH pH 9.5, 5 mM DTT.
Where [9] appears, read: aldehyde A12 50 µM, first of two lines (1 or 4 mM MeSpd, not stated which).
[10] abbreviates: aldehyde A12 50 µM, second of two lines (1 or 4 mM MeSpd, not stated which).
The mark [11] stands for this setting: aldehyde A12 500 µM, first of two lines (1 or 4 mM MeSpd, not stated which).
The mark [12] stands for this setting: aldehyde A12 500 µM, second of two lines (1 or 4 mM MeSpd, not stated which).
[13] abbreviates: aldehyde A13 50 µM, first of two lines (1 or 4 mM MeSpd, not stated which).
The mark [14] stands for this setting: aldehyde A13 50 µM, second of two lines (1 or 4 mM MeSpd, not stated which).
[15] abbreviates: aldehyde A13 500 µM, first of two lines (1 or 4 mM MeSpd, not stated which).
Where [16] appears, read: aldehyde A13 500 µM, second of two lines (1 or 4 mM MeSpd, not stated which).
[17] abbreviates: Ki (best-fit value, noncompetitive inhibition), GraphPad Prism global fit, supplement.
[18] abbreviates: Ki, non-competitive fit, 25, 50 or 100 µM Spm, pH 9.0, 37°C.

T2 sequence (Q6QHF9 whole entry): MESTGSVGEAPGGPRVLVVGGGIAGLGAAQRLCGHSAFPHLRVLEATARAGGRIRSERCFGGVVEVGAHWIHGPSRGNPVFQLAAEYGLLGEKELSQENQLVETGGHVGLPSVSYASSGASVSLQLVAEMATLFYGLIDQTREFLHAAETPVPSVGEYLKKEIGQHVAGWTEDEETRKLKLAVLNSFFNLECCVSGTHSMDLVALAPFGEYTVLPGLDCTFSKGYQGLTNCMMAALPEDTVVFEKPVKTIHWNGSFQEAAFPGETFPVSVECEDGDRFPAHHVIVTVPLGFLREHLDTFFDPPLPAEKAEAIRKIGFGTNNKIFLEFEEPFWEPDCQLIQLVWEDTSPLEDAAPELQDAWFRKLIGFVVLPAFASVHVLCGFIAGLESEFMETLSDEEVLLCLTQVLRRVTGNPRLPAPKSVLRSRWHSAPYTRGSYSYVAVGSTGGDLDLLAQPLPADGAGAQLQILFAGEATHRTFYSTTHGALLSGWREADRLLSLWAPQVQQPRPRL
T3 sequence (Q9NWM0 whole entry): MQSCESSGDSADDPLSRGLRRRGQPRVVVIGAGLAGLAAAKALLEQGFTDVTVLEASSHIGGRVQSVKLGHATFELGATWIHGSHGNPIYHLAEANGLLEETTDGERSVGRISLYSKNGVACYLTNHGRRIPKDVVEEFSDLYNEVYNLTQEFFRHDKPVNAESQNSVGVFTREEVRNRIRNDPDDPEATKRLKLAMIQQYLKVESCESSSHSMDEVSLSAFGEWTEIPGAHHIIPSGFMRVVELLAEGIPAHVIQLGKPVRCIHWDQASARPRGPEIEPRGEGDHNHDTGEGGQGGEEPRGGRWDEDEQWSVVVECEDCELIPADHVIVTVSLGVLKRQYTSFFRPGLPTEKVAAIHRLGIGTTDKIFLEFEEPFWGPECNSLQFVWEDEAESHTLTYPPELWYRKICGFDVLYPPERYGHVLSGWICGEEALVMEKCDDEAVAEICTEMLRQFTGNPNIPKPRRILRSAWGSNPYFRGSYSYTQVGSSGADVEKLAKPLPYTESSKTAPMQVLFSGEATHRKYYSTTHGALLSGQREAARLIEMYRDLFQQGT
T1 sequence (P50264 whole entry): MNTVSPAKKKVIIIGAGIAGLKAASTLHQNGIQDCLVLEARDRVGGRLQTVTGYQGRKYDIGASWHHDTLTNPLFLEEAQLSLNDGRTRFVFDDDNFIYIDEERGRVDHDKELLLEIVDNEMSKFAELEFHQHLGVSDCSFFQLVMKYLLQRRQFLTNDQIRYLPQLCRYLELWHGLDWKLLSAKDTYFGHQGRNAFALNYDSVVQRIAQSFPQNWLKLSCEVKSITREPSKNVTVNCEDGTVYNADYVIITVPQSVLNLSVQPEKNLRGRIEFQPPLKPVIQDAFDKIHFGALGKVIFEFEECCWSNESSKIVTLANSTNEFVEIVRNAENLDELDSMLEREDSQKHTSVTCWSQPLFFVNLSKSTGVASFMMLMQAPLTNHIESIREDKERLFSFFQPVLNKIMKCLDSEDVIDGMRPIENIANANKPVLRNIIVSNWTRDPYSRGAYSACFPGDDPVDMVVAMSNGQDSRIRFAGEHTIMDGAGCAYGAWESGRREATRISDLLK

Usually Km stands for the substrate concentration at which the rate is half of its maximum. Turning to `C[C@@H](N)CCNCCCCN` [(R)-MeSpd, 1,8-diamino-5-azanonane], the E1 cleavage velocity at Fms1 [1] (Without aldehyde, 1 mM MeSpd) is 9.5 ± 0.1 nmol/mg/min; on Fms1 [1] (setting [9]), 10.5 ± 1.1 nmol/mg/min; on Fms1 [1] (setting [10]), 14.0 ± 0.9 nmol/mg/min; on Fms1 [1] (setting [11]) it was 12.7 ± 1.6 nmol/mg/min; on Fms1 [1] (setting [12]), 14.4 ± 0.8 nmol/mg/min; on Fms1 [1] (setting [14]), 19.1 ± 0.4 nmol/mg/min. In addition, the E1 cleavage velocity on Fms1 [1] (setting [15]) was 72.8 ± 2.3 nmol/mg/min; at Fms1 [1] (setting [16]), 63.1 ± 1.0 nmol/mg/min; at Fms1 [3] (Without aldehyde, 4 mM MeSpd), 12.5 ± 0.0 nmol/mg/min; at Fms1 [3] (setting [13]), 19.1 ± 1.0 nmol/mg/min. In addition, the E2 cleavage velocity was 33.7 ± 4.8 nmol/mg/min on Fms1 [1] (setting [9]); 31.8 ± 4.3 nmol/mg/min on Fms1 [1] (setting [10]); 186 ± 24 nmol/mg/min on Fms1 [1] (setting [11]); 216 ± 31 nmol/mg/min on Fms1 [1] (setting [12]); 10.3 ± 3.1 nmol/mg/min at Fms1 [1] (setting [13]); 9.6 ± 2.2 nmol/mg/min on Fms1 [1] (setting [14]). For the same molecule, the E2 cleavage velocity is given as 41.5 ± 3.4 nmol/mg/min on Fms1 [1] (setting [15]); 39.5 ± 2.1 nmol/mg/min at Fms1 [1] (setting [16]); 4.3 ± 0.9 nmol/mg/min at Fms1 [3] (Without aldehyde, 1 mM MeSpd); 5.6 ± 0.4 nmol/mg/min at Fms1 [3] (Without aldehyde, 4 mM MeSpd). Moreover, on Fms1 [2], the Km is greater than 500 µM. Also, the “specificity constant ratio (R)/(S) of benzaldehyde Schiff base derivatives” value at human recombinant APAO [4] was “eight”.
With `C[C@H](N)CCNCCCCN` [(S)-MeSpd, 1,8-diamino-5-azanonane], the E1 cleavage velocity on Fms1 [1] (Without aldehyde, 1 mM MeSpd) is reported as 7.2 ± 0.2 nmol/mg/min; on Fms1 [1] (setting [9]), 29 ± 1.0 nmol/mg/min; at Fms1 [1] (setting [10]) it was 31 ± 1.8 nmol/mg/min; at Fms1 [1] (setting [11]), 57 ± 1.1 nmol/mg/min; on Fms1 [1] (setting [12]), 62 ± 3 nmol/mg/min; at Fms1 [1] (setting [14]) it was 44.0 ± 1.2 nmol/mg/min. Besides, the E1 cleavage velocity at Fms1 [1] (setting [15]) was 66.1 ± 0.0 nmol/mg/min; at Fms1 [1] (setting [16]), 73.5 ± 0.4 nmol/mg/min; at Fms1 [3] (Without aldehyde, 4 mM MeSpd), 9.6 ± 0.1 nmol/mg/min; on Fms1 [3] (setting [13]) it was 45.6 ± 2.6 nmol/mg/min. For the same molecule, the E2 cleavage velocity at Fms1 [1] (setting [9]) came out at 20.2 ± 1.0 nmol/mg/min; at Fms1 [1] (setting [10]) it was 23.3 ± 2.0 nmol/mg/min; at Fms1 [1] (setting [11]), 36 ± 4.2 nmol/mg/min; on Fms1 [1] (setting [12]) it was 41 ± 2.5 nmol/mg/min; at Fms1 [1] (setting [13]), 8.6 ± 1.8 nmol/mg/min; at Fms1 [1] (setting [14]), 10.0 ± 0.6 nmol/mg/min. In addition, the E2 cleavage velocity at Fms1 [1] (setting [15]) is 6.9 ± 0.7 nmol/mg/min; on Fms1 [1] (setting [16]), 7.4 ± 1.3 nmol/mg/min; at Fms1 [3] (Without aldehyde, 1 mM MeSpd), 7.9 ± 1.1 nmol/mg/min; at Fms1 [3] (Without aldehyde, 4 mM MeSpd), 11.1 ± 1.8 nmol/mg/min. The Michaelis-Menten constant (Km) at Fms1 [2] was greater than 500 µM.
`COc1ccc(C=O)cc1` [A4]: the “effect on cleavage site balance of Spd” value on Fms1 [5] is listed as “shifted the balance towards E2 cleavage site”.
For `O=Cc1cccc(O)c1` [A6], the “effect on cleavage site balance of Spd” value at Fms1 [5] was “shifted the balance towards E2 cleavage site”.
With `O=Cc1ccccc1[N+](=O)[O-]` [A7], the “increase of the ratio of the cleavage pathways (E1/E2)” value at Fms1 [5] (Spd plus aldehyde vs Spd alone) worked out at 5 fold.
`O=Cc1ccccn1` [A18]: the “effect on cleavage site balance of Spd” value on Fms1 [5] is “shifted the balance towards E2 cleavage site”.
As usually defined, the Ki is a dissociation constant, usually derived from enzyme kinetics or from competition with a known ligand. Read a high Ki as lower affinity. As usually defined, the Vmax is the rate approached at saturating substrate. By kcat is commonly meant the number of substrate molecules converted per active site and unit of time at saturation. On to `C[C@H](CCNCCCCN)NCc1ccccc1` [Bn-(R)-MeSpd], for which the “substrate of SMOX” value on SMOX [6] is listed as “not being substrates of SMOX”. The affinity at SMOX [7] (setting [17]), expressed as Ki, was 441 µM. The Ki at SMOX [7] (setting [18]) is 441 ± 32 µM. On human recombinant APAO [8], the Km worked out at 2 ± 0.1 µM, the Vmax worked out at 0.15 ± 0.00 µmol/min/mg and the kcat is 0.14 ± 0.00 s⁻¹. In addition, on human recombinant APAO [8] (APAO, ratio of kcat/Km), the “specificity constant ratio (R)-enantiomer/(S)-enantiomer” value is given as “four”.
For `C[C@H](CCNCCCCN)NC(=O)c1ccccc1` [Bz-(R)-MeSpd], the Ki on SMOX [7] (setting [17]) is 589 µM. The Ki at SMOX [7] (setting [18]) was 589 ± 58 µM. Also, at human recombinant APAO [8], the Km amounted to 1.2 ± 0.7 µM, the Vmax was found to be 5.02 ± 0.74 µmol/min/mg and the kcat was found to be 4.6 ± 0.7 s⁻¹.
Consider `C[C@@H](CCNCCCCN)NC(=O)c1ccccc1` [Bz-(S)-MeSpd], for which the affinity at SMOX [7] (setting [17]), expressed as Ki, was 846 µM. The molecule further returned a Ki at SMOX [7] (setting [18]) of 846 ± 82 µM. On human recombinant APAO [8], the Km is 0.2 ± 0.2 µM, the Vmax is 0.03 ± 0.00 µmol/min/mg and the kcat was 0.03 ± 0.00 s⁻¹.
Turning to `O=Cc1ccccc1O` [C00002], at Fms1 [5], the “E1 cleavage (Put) kcat” value was determined as 0.54 ± 0.01 s⁻¹, the “E2 cleavage (DAP) kcat” value amounted to 0.08 ± 0.00 s⁻¹ and the “Ratio of E1/E2” value turned out to be 5.2.
Regarding `O=Cc1cccc(O)c1` [C00003], at Fms1 [5], the “E1 cleavage (Put) kcat” value came to 0.31 ± 0.01 s⁻¹, the “E2 cleavage (DAP) kcat” value is 0.47 ± 0.01 s⁻¹ and the “Ratio of E1/E2” value is given as 0.22.
For `O=Cc1ccc(O)cc1` [C00004] the same measures were 0.11 ± 0.00 s⁻¹, 0.03 ± 0.00 s⁻¹ and 118.
In the case of `O=Cc1ccncc1` [C00005], at Fms1 [5], the “E1 cleavage (Put) kcat” value worked out at 7.4 ± 0.2 s⁻¹, the “E2 cleavage (DAP) kcat” value amounted to 0.19 ± 0.01 s⁻¹ and the “Ratio of E1/E2” value worked out at 12.9.
